Experiment: recombinant UMI read abundance after kanamycin selection (control-corrected) (log10(CPM+1)); higher = more efficient recombination; extreme values may be limits of the assay; sequences stand for … in AGTGCAGAGAAAATCGGCCAGTTTTCTCTGCCTGCAGTCCGCATGCCGTGGGACCCCTTGGGTTCTAACCTGTTGCCTAGATTTATGCAGCGGACTGCCTTTCTCCCAAAGTGATAAACCGG…AGGTTGGTTTCACT; site = the 11-nt donor
Outline: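 Pooled Escherichia coli screen of donor and donor-binding-loop pairs for the IS621 bridge recombinase. Each pair sits with a 12-nt UMI on a plasmid carrying a promoterless kanamycin gene. The library was co-electroporated with a target plasmid encoding a fixed target and T7-inducible recombinase, then plated with IPTG (0.07 mM) plus kanamycin, or unselected, each in two replicates. Recombinant UMIs were PCR-amplified across the donor–target junction and sequenced. Counts became CPM, averaged over replicates, scaled by control-derived factors and reported as log10(CPM+1).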
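Note: IS621 bridge recombinase in Escherichia coli cells against a fixed T5 target plasmid.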

Sequence	recombinant UMI read abundance (log10)
CAAGTCGCATGGACCGGTTTTCCCGGTAATCCGTATTTGGG (site CAAGTCCCTCC)	0.554
CAAGTCGCATGGACCGGTTTTCCCGGTAATCCGTATTTGGG (site CAAGTCGCTCC)	0.908
CAAGTCGCATGGACCGGTTTTCCCGGTAATCCGTATTTGGG (site CAAGTCTCTCC)	1.46
CAAGTCTCATGGACCGGTTTTCCCGGTAATCCGTATTTGGG (site CAAGTCACTCC)	0.0252
CAAGTCTCATGGACCGGTTTTCCCGGTAATCCGTATTTGGG (site CAAGTCCCTCC)	0.019
CAAGTCTCATGGACCGGTTTTCCCGGTAATCCGTATTTGGG (site CAAGTCGCTCC)	0.02
CAAGTCTCATGGACCGGTTTTCCCGGTAATCCGTATTTGGG (site CAAGTCTCTCC)	0.916
CAAGTGACATGGACCGGTTTTCCCGGTAATCCGTATTTGGG (site CAAGTAACTCC)	1.09
CAAGTGACATGGACCGGTTTTCCCGGTAATCCGTATTTGGG (site CAAGTCACTCC)	0.00913
CAAGTGACATGGACCGGTTTTCCCGGTAATCCGTATTTGGG (site CAAGTGACTCC)	0.246
CAAGTGACATGGACCGGTTTTCCCGGTAATCCGTATTTGGG (site CAAGTTACTCC)	0.48
CAATACGCATGGACCGGTTTTCCCGGTAATCCGTATTTGAT (site CAATACGCTAT)	2.03
CAATACTCATGGACCGGTTTTCCCGGTAATCCGTATTTGAA (site CAATACTCTTT)	3.09
CAATACTCATGGACCGGTTTTCCCGGTAATCCGTATTTGAA (site CAATCCTCTTT)	0
CAATACTCATGGACCGGTTTTCCCGGTAATCCGTATTTGAA (site CAATGCTCTTT)	0.0128
CAATACTCATGGACCGGTTTTCCCGGTAATCCGTATTTGAA (site CAATTCTCTTT)	0
CAATCACCATGGACCGGTTTTCCCGGTAATCCGTATTTGCT (site CAATCACCTAG)	0.00562
CAATCACCATGGACCGGTTTTCCCGGTAATCCGTATTTGCT (site CGATCATCTAG)	0
CAATCATCATGGACCGGTTTTCCCGGTAATCCGTATTTGCT (site CAATCATCTAG)	2.15
CAATCATCATGGACCGGTTTTCCCGGTAATCCGTATTTGCT (site CCATCATCTAG)	0.883
CAATCATCATGGACCGGTTTTCCCGGTAATCCGTATTTGCT (site CGATCATCTAG)	0.258
CAATCATCATGGACCGGTTTTCCCGGTAATCCGTATTTGCT (site CTATCATCTAG)	0.404
CAATCTGCATGGACCGGTTTTCCCGGTAATCCGTATTTGCT (site CAATCTGCTAG)	0.515

Sequence	recombinant UMI read abundance (log10)
CAATGCCCATGGACCGGTTTTCCCGGTAATCCGTATTTGAA (site CAATGCACTTT)	0.00911
CAATGCCCATGGACCGGTTTTCCCGGTAATCCGTATTTGAA (site CAATGCCCTTT)	1
CAATGCCCATGGACCGGTTTTCCCGGTAATCCGTATTTGAA (site CAATGCGCTTT)	0.00922
CAATGCCCATGGACCGGTTTTCCCGGTAATCCGTATTTGAA (site CAATGCTCTTT)	1.62
CAATGCTCATGGACCGGTTTTCCCGGTAATCCGTATTTGAG (site CAATGCTCTAT)	1.46
CAATGCTCATGGACCGGTTTTCCCGGTAATCCGTATTTGAG (site CAATGCTCTCT)	2.2
CAATGCTCATGGACCGGTTTTCCCGGTAATCCGTATTTGAG (site CAATGCTCTGT)	0.535
CAATGCTCATGGACCGGTTTTCCCGGTAATCCGTATTTGAG (site CAATGCTCTTT)	0.812
CAATGGCCATGGACCGGTTTTCCCGGTAATCCGTATTTGCG (site CAATGGCCTCG)	0.00456
CAATGGTCATGGACCGGTTTTCCCGGTAATCCGTATTTGAA (site CAATGATCTTT)	2.68
CAATGGTCATGGACCGGTTTTCCCGGTAATCCGTATTTGAA (site CAATGCTCTTT)	0.00506
CAATGGTCATGGACCGGTTTTCCCGGTAATCCGTATTTGAA (site CAATGGTCTTT)	2.39
CAATGGTCATGGACCGGTTTTCCCGGTAATCCGTATTTGAA (site CAATGTTCTTT)	0
CAATGTTCATGGACCGGTTTTCCCGGTAATCCGTATTTGAA (site CAATGATCTTT)	0.287
CAATGTTCATGGACCGGTTTTCCCGGTAATCCGTATTTGAA (site CAATGCTCTTT)	0.0108
CAATGTTCATGGACCGGTTTTCCCGGTAATCCGTATTTGAA (site CAATGGTCTTT)	0.0106
CAATGTTCATGGACCGGTTTTCCCGGTAATCCGTATTTGAA (site CAATGTTCTTT)	2.11
CAATTAACATGGACCGGTTTTCCCGGTAATCCGTATTTGCT (site CAATTAACTAG)	0.982
CAATTCACATGGACCGGTTTTCCCGGTAATCCGTATTTGGG (site CAAATCACTCC)	0.839
CAATTCACATGGACCGGTTTTCCCGGTAATCCGTATTTGGG (site CAACTCACTCC)	0.251
CAATTCACATGGACCGGTTTTCCCGGTAATCCGTATTTGGG (site CAAGTCACTCC)	0.0135
CAATTCACATGGACCGGTTTTCCCGGTAATCCGTATTTGGG (site CAATTCACTCC)	0.0754
CAATTCCCATGGACCGGTTTTCCCGGTAATCCGTATTTGCA (site CAATTCCCTAG)	0

Sequence	recombinant UMI read abundance (log10)
CAATTCCCATGGACCGGTTTTCCCGGTAATCCGTATTTGCA (site CAATTCCCTCG)	0.00698
CAATTCCCATGGACCGGTTTTCCCGGTAATCCGTATTTGCA (site CAATTCCCTGG)	0
CAATTCCCATGGACCGGTTTTCCCGGTAATCCGTATTTGCA (site CAATTCCCTTG)	1.27
CAATTCTCATGGACCGGTTTTCCCGGTAATCCGTATTTGCT (site CAATTCACTAG)	0.75
CAATTCTCATGGACCGGTTTTCCCGGTAATCCGTATTTGCT (site CAATTCCCTAG)	0.421
CAATTCTCATGGACCGGTTTTCCCGGTAATCCGTATTTGCT (site CAATTCGCTAG)	0
CAATTCTCATGGACCGGTTTTCCCGGTAATCCGTATTTGCT (site CAATTCTCTAG)	2.19
CACAACACATGGACCGGTTTTCCCGGTAATCCGTATTTGAC (site CACAACACTGT)	2.79
CACATGGCATGGACCGGTTTTCCCGGTAATCCGTATTTGGA (site CACATGGCTTC)	0.785
CACATGGCATGGACCGGTTTTCCCGGTAATCCGTATTTGGA (site CACCTGGCTTC)	0.346
CACATGGCATGGACCGGTTTTCCCGGTAATCCGTATTTGGA (site CACGTGGCTTC)	0.414
CACATGGCATGGACCGGTTTTCCCGGTAATCCGTATTTGGA (site CACTTGGCTTC)	0.388
CACATTGCATGGACCGGTTTTCCCGGTAATCCGTATTTGGT (site CACATTGCTAC)	1.69
CACCATGCATGGACCGGTTTTCCCGGTAATCCGTATTTGCG (site CACCATGCTCG)	1.28
CACCCCTCATGGACCGGTTTTCCCGGTAATCCGTATTTGCC (site CACACCTCTGG)	0
CACCCCTCATGGACCGGTTTTCCCGGTAATCCGTATTTGCC (site CACCCCTCTGG)	2.71
CACCCCTCATGGACCGGTTTTCCCGGTAATCCGTATTTGCC (site CACGCCTCTGG)	0
CACCCCTCATGGACCGGTTTTCCCGGTAATCCGTATTTGCC (site CACTCCTCTGG)	1.21
CACCGATCATGGACCGGTTTTCCCGGTAATCCGTATTTGGC (site CACCGATCTGC)	3.71
CACCGCCCATGGACCGGTTTTCCCGGTAATCCGTATTTGTT (site CACAGCCCTAA)	0.00423
CACCGCCCATGGACCGGTTTTCCCGGTAATCCGTATTTGTT (site CACCGCCCTAA)	0.033
CACCGCCCATGGACCGGTTTTCCCGGTAATCCGTATTTGTT (site CACGGCCCTAA)	0.0192

Reference: the supplement of paper PMC11208160
